The compounds below were run on P493-6 (myc "on") cells (assay: Cell Proliferation Assay). Details: P493-6, 72 h, read-out: Cell prolif P493 72 h IC50, P493-6 cells, 72 h.
Format: cell-based
Outline: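 Read-out: either Cell Titer Glo or Guava Viacount flow analysis after 72 h compound treatment of myc-on P493-6 cells (10,000/well, RPMI with 10% FBS) at 37 °C. DMSO held at 0.5% final.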
Compound CNCc1cccc(CC(=O)Nc2nnc(CCCCc3nnc(NC(=O)Cc4ccccc4)s3)s2)c1 [Compound 393] has an IC50 of 900 nM.
CN(C)Cc1cccc(CC(=O)Nc2nnc(CCCCc3nnc(NC(=O)Cc4ccccc4)s3)s2)c1 [Compound 394] gave an IC50 of 1200 nM.
CN(Cc1cccc(CC(=O)Nc2nnc(CCCCc3ccc(NC(=O)Cc4ccccc4)nn3)s2)c1)C(=O)OC(C)(C)C [Compound 396] showed an IC50 of 5 nM.

Same assay, conditions: P493-6, 72 h, read-out: Cell prolif P493 72 h IC50, P493 cells, 72 h
O=C(Cc1ccccc1)Nc1nnc(CCCCc2nnc(NC(=O)C(O)(CO)c3ccccc3)s2)s1 (stereo not drawn) [Compound 280] gave an IC50 of 230 nM.
For O=C(Cc1ccccc1Br)Nc1nnc(CCCCc2nnc(NC(=O)Cc3ccccc3Br)s2)s1 [Compound 282], the IC50 was 370 nM.
In the case of O=C(Cc1ccccc1Br)Nc1nnc(CCSCCc2nnc(NC(=O)Cc3ccccc3Br)s2)s1 [Compound 283], the IC50 is reported as 740 nM.
Work on O=C(Cc1cccc(-n2cccn2)c1)Nc1nnc(CCCCc2nnc(NC(=O)Cc3cccc(-n4cccn4)c3)s2)s1 [Compound 285] yielded an IC50 of 140 nM.
Compound O=C(Cc1cccc(CN2CCNCC2)c1)Nc1nnc(CCCCc2nnc(NC(=O)Cc3cccc(CN4CCNCC4)c3)s2)s1 [Compound 286] has an IC50 of 6400 nM.
In the case of O=C(Nc1nnc(CCCCc2nnc(NC(=O)C(O)c3ccccc3Br)s2)s1)C(O)c1ccccc1Br (stereo not drawn) [Compound 287], the IC50 is reported as 1300 nM.
With O=C(Nc1nnc(CCCCc2nnc(NC(=O)C(O)c3cccc(Br)c3)s2)s1)C(O)c1cccc(Br)c1 (stereo not drawn) [Compound 288] the IC50 was 28 nM.
Work on O=C(Cc1ccccc1)Nc1nnc(CCCCc2nnc(NC(=O)[C@H]3CCCC[C@@H]3C(=O)c3ccccc3)s2)s1 [Compound 290] yielded an IC50 of 790 nM.
CC(C)[C@H](N)C(=O)OCC(C(=O)Nc1nnc(CCCCc2nnc(NC(=O)C(COC(=O)[C@@H](N)C(C)C)c3ccccc3)s2)s1)c1ccccc1 (stereo partly drawn) [Compound 291] was tested, and the IC50 was 1800 nM.
Compound O=C(Cc1ccccc1F)Nc1nnc(CCCCc2nnc(NC(=O)Cc3ccccc3F)s2)s1 [Compound 292] has an IC50 of 12 nM.
For O=C(Cc1c(F)cccc1F)Nc1nnc(CCCCc2nnc(NC(=O)Cc3c(F)cccc3F)s2)s1 [Compound 293], the IC50 was 40 nM.
In the case of O=C(Cc1ccccc1F)Nc1nnc(CCSCCc2nnc(NC(=O)Cc3ccccc3F)s2)s1 [Compound 294], the IC50 is reported as 1100 nM.
With Cc1nccn1Cc1cccc(CC(=O)Nc2nnc(CCCCc3nnc(NC(=O)Cc4cccc(Cn5ccnc5C)c4)s3)s2)c1 [Compound 296] the IC50 was 170 nM.
Work on O=C(Cc1c(F)cccc1F)Nc1nnc(CCSCCc2nnc(NC(=O)Cc3c(F)cccc3F)s2)s1 [Compound 298] yielded an IC50 of 5100 nM.
In the case of CCOc1ccccc1CC(=O)Nc1nnc(CCCCc2nnc(NC(=O)Cc3ccccc3OCC)s2)s1 [Compound 300], the IC50 is reported as 160 nM.
O=C(OCC(C(=O)Nc1nnc(CCCCc2nnc(NC(=O)C(COC(=O)C3CCN(C(=O)OCc4ccccc4)CC3)c3ccccc3)s2)s1)c1ccccc1)C1CCN(C(=O)OCc2ccccc2)CC1 (stereo not drawn) [Compound 301] showed an IC50 of 230 nM.
O=C(OCC(C(=O)Nc1nnc(CCCCc2nnc(NC(=O)C(COC(=O)C3CCNCC3)c3ccccc3)s2)s1)c1ccccc1)C1CCNCC1 (stereo not drawn) [Compound 302] was tested, and the IC50 was 870 nM.
O=C(Cc1ccccc1)Nc1nnc(CCCCc2nnc(NC(=O)[C@@H]3CCCC[C@H]3C(O)c3ccccc3)s2)s1 (stereo partly drawn) [Compound 304] was tested, and the IC50 was 4900 nM.
O=C(Cc1ccccc1)Nc1nnc(CCCCc2nnc(NC(=O)Cc3ccccc3)o2)o1 [Compound 305] was tested, and the IC50 was 102000 nM.
For O=C(Nc1nnc(CCCCc2nnc(NC(=O)C(O)c3cccc(Cl)c3)s2)s1)C(O)c1cccc(Cl)c1 (stereo not drawn) [Compound 306], the IC50 was 66 nM.
With O=C(Cc1ccccn1)Nc1nnc(CCSCCc2nnc(NC(=O)Cc3ccccn3)s2)s1 [Compound 308] the IC50 was 1200 nM.
O=C(Cc1ccccc1)Nc1nnc(CCCCc2nnc(NC(=O)Cc3cccnc3)s2)s1 [Compound 309] was tested, and the IC50 was 180 nM.
For O=C(Cc1cccnc1)Nc1nnc(CCCCc2nnc(NC(=O)Cc3cccnc3)s2)s1 [Compound 311], the IC50 was 22000 nM.
In the case of O=C(Cc1ccccc1)Nc1ccc(CCCCc2nnc(NC(=O)C(O)c3ccccc3)s2)nn1 (stereo not drawn) [Compound 315], the IC50 is reported as 35 nM.
For O=C(Cc1ccccc1)Nc1nnc(CCCCc2nnc(NC(=O)C(CO)c3ccccc3)s2)s1 (stereo not drawn) [Compound 316], the IC50 was 75 nM.
COc1cccc(C(O)C(=O)Nc2nnc(CCCCc3ccc(NC(=O)Cc4ccccc4)nn3)s2)c1 (stereo not drawn) [Compound 317] was tested, and the IC50 was 10 nM.
COc1cc(C(O)C(=O)Nc2nnc(CCCCc3nnc(NC(=O)C(O)c4ccc(O)c(OC)c4)s3)s2)ccc1O (stereo not drawn) [Compound 319] showed an IC50 of 10000 nM.
In the case of COc1ccc(C(O)C(=O)Nc2nnc(CCCCc3nnc(NC(=O)C(O)c4ccc(OC)cc4)s3)s2)cc1 (stereo not drawn) [Compound 320], the IC50 is reported as 190 nM.
Compound C[C@H](O)C(=O)Nc1nnc(CCCCc2nnc(NC(=O)Cc3ccccc3)s2)s1 [Compound 321] has an IC50 of 2600 nM.
In the case of C[C@@H](O)C(=O)Nc1nnc(CCCCc2nnc(NC(=O)Cc3ccccc3)s2)s1 [Compound 322], the IC50 is reported as 3000 nM.
O=C(Cc1cccc2[nH]ccc12)Nc1nnc(CCCCc2nnc(NC(=O)Cc3cccc4[nH]ccc34)s2)s1 [Compound 323] gave an IC50 of 200 nM.
In the case of CC(C)(C)OC(=O)Nc1cccc(CC(=O)Nc2nnc(CCCCc3nnc(NC(=O)Cc4cccc(NC(=O)OC(C)(C)C)c4)s3)s2)c1 [Compound 327], the IC50 is reported as 150 nM.
With O=C(CCN1CCOCC1)OC(C(=O)Nc1nnc(CCCCc2nnc(NC(=O)C(OC(=O)CCN3CCOCC3)c3cccc(Cl)c3)s2)s1)c1cccc(Cl)c1 (stereo not drawn) [Compound 332] the IC50 was 87 nM.
O=C(Cc1ccccc1)Nc1nnc(CCCCc2nnc(NC(=O)Cc3ccccc3CO)s2)s1 [Compound 333] showed an IC50 of 1600 nM.
Work on O=C(Cc1ccccc1)Nc1ccc(CCCCc2nnc(NC(=O)C(OC(=O)CCN3CCOCC3)c3ccccc3)s2)nn1 (stereo not drawn) [Compound 334] yielded an IC50 of 30 nM.
For O=C(Cc1ccccc1)Nc1ccc(CCCCc2nnc(NC(=O)Cc3cccc(Cl)c3)s2)nn1 [Compound 335], the IC50 was 50 nM.
In the case of NCc1cccc(CC(=O)Nc2nnc(CCCCc3ccc(NC(=O)Cc4ccccc4)nn3)s2)c1 [Compound 341], the IC50 is reported as 39 nM.
For Nc1nnc(CCCCc2ccc(NC(=O)Cc3ccccc3)nn2)s1 [Compound 342], the IC50 was 2700 nM.
Compound COc1ccc(Cl)c(CC(=O)Nc2nnc(CCCCc3nnc(NC(=O)Cc4ccccc4)s3)s2)c1F [Compound 343] has an IC50 of 250 nM.
With COc1c(F)ccc(CC(=O)Nc2nnc(CCCCc3nnc(NC(=O)Cc4ccccc4)s3)s2)c1F [Compound 344] the IC50 was 88 nM.
O=C(Cc1ccccc1)Nc1nnc(CCCCc2nnc(NC(=O)Cc3c(Cl)ccc(O)c3F)s2)s1 [Compound 345] was tested, and the IC50 was 240 nM.
O=C(Cc1ccccc1)Nc1nnc(CCCCc2nnc(NC(=O)Cc3ccc(F)c(O)c3F)s2)s1 [Compound 346] was tested, and the IC50 was 87 nM.
O=C(Cc1ccccc1)Nc1nnc(CCSCCc2nnc(NC(=O)Cc3cccnc3)s2)s1 [Compound 347] showed an IC50 of 710 nM.
With Nc1ccc(CCCCc2nnc(NC(=O)Cc3ccccc3)s2)nn1 [Compound 348, N-(5-(4-(6-aminopyridazin-3-yl)butyl)-1,3,4-thiadiazol-2-yl)-2-phenylacetamide] the IC50 was 1700 nM.
O=C(Cc1ccccc1)Nc1ccc(CCCCc2nnc(NC(=O)[C@@H](O)c3ccccc3)s2)nn1 [Compound 350] showed an IC50 of 29 nM.
Compound O=C(Cc1ccccc1)Nc1ccc(CCCCc2nnc(NC(=O)NCc3ccccc3)s2)nn1 [Compound 352] has an IC50 of 130 nM.
O=C(CCN1CCOCC1)OC(C(=O)Nc1nnc(CCCCc2nnc(NC(=O)C(O)c3cccc(Cl)c3)s2)s1)c1cccc(Cl)c1 (stereo not drawn) [Compound 358] showed an IC50 of 110 nM.
In the case of O=C(Cc1ccccc1)Nc1nnc(CCSCCc2nnc(NC(=O)Cc3ccccn3)s2)s1 [Compound 359], the IC50 is reported as 910 nM.
With O=C(Cc1ccncc1)Nc1nnc(CCSCCc2nnc(NC(=O)Cc3ccncc3)s2)s1 [Compound 361] the IC50 was over 20000 nM.
O=C(Cc1cccc(Cn2cccn2)c1)Nc1nnc(CCCCc2nnc(NC(=O)Cc3cccc(Cn4cccn4)c3)s2)s1 [Compound 362] was tested, and the IC50 was 54 nM.
O=C(Cc1cccc(-n2ccnc2)c1)Nc1nnc(CCCCc2nnc(NC(=O)Cc3cccc(-n4ccnc4)c3)s2)s1 [Compound 363] was tested, and the IC50 was over 20000 nM.
For CC(C)(C)OC(=O)NCc1cccc(CC(=O)Nc2ccc(CCCCc3nnc(NC(=O)Cc4ccccc4)s3)nn2)c1 [Compound 367], the IC50 was 6 nM.
CC(C)COC(=O)Nc1nnc(CCCCc2nnc(NC(=O)Cc3ccccc3)s2)s1 [Compound 370] gave an IC50 of 700 nM.
With O=C(Cc1ccccc1)Nc1nnc(CCSCc2nnc(NC(=O)Cc3cccc(Cl)c3)s2)s1 [Compound 372] the IC50 was 150 nM.
Work on O=C(Cc1ccccc1)Nc1nnc(CCSCc2nnc(NC(=O)Cc3ccccn3)s2)s1 [Compound 373] yielded an IC50 of 280 nM.
Work on O=C(Cc1ccccc1)Nc1nnc(CCCCc2nnc(NC(=O)OCc3ccccc3)s2)s1 [Compound 374] yielded an IC50 of 470 nM.
In the case of O=C(Cc1ccccc1)Nc1nnc(CCSCc2nnc(NC(=O)C(O)c3cccc(Cl)c3)s2)s1 (stereo not drawn) [Compound 376], the IC50 is reported as 91 nM.
With O=C(Cc1ccccc1)Nc1nnc(CCSCc2nnc(NC(=O)[C@@H](O)c3ccccc3)s2)s1 [Compound 377] the IC50 was 100 nM.
Work on O=C(Cc1ccccc1)Nc1nnc(CCSCc2nnc(NC(=O)Cc3cccc(OCCN4CCOCC4)c3)s2)s1 [Compound 378] yielded an IC50 of 90 nM.
Work on COC(=O)Nc1nnc(CCCCc2nnc(NC(=O)Cc3ccccc3)s2)s1 [Compound 387] yielded an IC50 of 2300 nM.
Compound CCCCOC(=O)Nc1nnc(CCCCc2nnc(NC(=O)Cc3ccccc3)s2)s1 [Compound 388] has an IC50 of 750 nM.
For O=C(Cc1ccccc1)Nc1ccc(CCCCc2nnc(NC(=O)C(OC(=O)CCN3CCOCC3)c3cccc(Cl)c3)s2)nn1 (stereo not drawn) [Compound 389], the IC50 was 32 nM.
O=C(Cc1ccccc1)Nc1nnc(CCCCc2nnc(NC(=O)Cc3cccc(OCCN4CCOCC4)c3)s2)s1 [Compound 390] gave an IC50 of 160 nM.
With CN(Cc1cccc(CC(=O)Nc2nnc(CCCCc3nnc(NC(=O)Cc4ccccc4)s3)s2)c1)C(=O)OC(C)(C)C [Compound 391] the IC50 was 27 nM.
Work on O=C(Cc1ccccc1)Nc1nnc(CCCCc2nnc(NC(=O)Cc3cccc(Cn4cccn4)c3)s2)s1 [Compound 392] yielded an IC50 of 72 nM.

Same assay, conditions: P493-6, read-out: Cell prolif P493 72 h IC50; P493 cells, 72 h
O=C(Cc1ccccc1)Nc1nnc(CCCCc2nnc(NC(=O)Oc3ccccc3)s2)s1 [Compound 371] showed an IC50 of 5200 nM.

Reference: US20150004134A1, “TREATMENT OF CANCER WITH HETEROCYCLIC INHIBITORS OF GLUTAMINASE” (Calithera Biosciences, Inc., priority 2012, published 2015)
